Calls of active or inactive are those of the source. The calls are words filed in the database; no cut-off is given here.
How the values were obtained:
[1] = tested on: K562/Adr; experiment: Induction of apoptosis in human K562/ADR cells assessed as ratio of cleaved caspase-3 to beta-actin level at 0.1 uM pretreated with MAPK inhibitor SP600125 for 1 hr followed by compound addition measured after 48 hrs by Western blot analysis (reference value: 0.06); type: functional
[2] = target: T1, c-Jun N-terminal kinase, JNK (Homo sapiens) (UniProt P45983+P53779+P45984); experiment: Induction of JNK phosphorylation in human K562/ADR cells assessed as ratio of phosphorylated JNK to beta-actin level at 0.1 uM pretreated with MAPK inhibitor SP600125 for 1 hr followed by compound addition after 48 hrs by Western blotting method (reference value: 0.46); type: cell-based
[3] = Antiproliferative activity against human K562/ADR cells measured after 72 hrs by CCK8 assay; type: functional, cell-based
[4] = Downregulation of P-gp expression in human K562/ADR cells assessed as ratio of P-gp to beta-actin level at 0.1 uM pretreated with MAPK inhibitor U0126 for 1 hr followed by compound addition measured after 48 hrs by Western blot analysis (reference value: 0.63); type: functional, cell-based
[5] = Downregulation of CDK2 expression in human K562/ADR cells assessed as ratio of CDK2 to beta-actin level at 0.1 uM pretreated with MAPK inhibitor SB203580 for 1 hr followed by compound addition measured after 48 hrs by Western blot analysis (reference value: 0.65); type: functional, cell-based
[6] = Downregulation of CDK1 expression in human K562/ADR cells assessed as ratio of CDK1 to beta-actin level at 0.1 uM pretreated with ROS scavenger NAC for 2 hrs followed by compound addition measured after 48 hrs by Western blot analysis (reference value: 0.53); type: functional, cell-based
[7] = tested on: K562/Adr; experiment: Induction of ERK1/2 phosphorylation in human K562/ADR cells assessed as ratio of phosphorylated ERK1/2 to beta-actin level at 0.1 uM pretreated with MAPK inhibitor U0126 for 1 hr followed by compound addition after 48 hrs by Western blotting method (reference value: 0.22); type: cell-based
[8] = tested on: K562/Adr; experiment: Induction of apoptosis in human K562/ADR cells assessed as viable cells at 0.1 uM pretreated with ROS scavenger NAC for 2 hrs followed by compound addition after 48 hrs by Annexin V-APC/7-AAD staining based flow cytometry (reference value: 95.31%); type: functional; conditions: read-out: Activity
[9] = tested on: K562/Adr; experiment: Induction of apoptosis in human K562/ADR cells assessed as ratio of cleaved PARP to beta-actin level at 0.1 uM pretreated with MAPK inhibitor SP600125 for 1 hr followed by compound addition measured after 48 hrs by Western blot analysis (reference value: 0.04); type: functional
[10] = tested on: K562/Adr; experiment: Induction of apoptosis in human K562/ADR cells assessed as cell shrinkage at 0.1 uM measured after 24 hrs by Hoechst33342 staining-based inverted fluorescent microscopic analysis; type: functional
[11] = tested on: K562/Adr; experiment: Induction of apoptosis in human K562/ADR cells assessed as late apoptotic cells at 0.1 uM pretreated with ROS scavenger NAC for 2 hrs followed by compound addition after 48 hrs by Annexin V-APC/7-AAD staining based flow cytometry (reference value: 1.69%); type: functional
[12] = tested on: K562/Adr; experiment: Induction of apoptosis in human K562/ADR cells assessed as ratio of cleaved caspase-9 to beta-actin level at 0.1 uM pretreated with MAPK inhibitor U0126 for 1 hr followed by compound addition measured after 48 hrs by Western blot analysis (reference value: 0.05); type: functional
[13] = tested on: K562; experiment: Resistance index, ratio of IC50 for human K562/ADR cells to IC50 for human K562 cells; type: functional
[14] = tested on: K562/Adr; experiment: Induction of apoptosis in human K562/ADR cells assessed as early apoptotic cells at 0.1 uM pretreated with ROS scavenger NAC for 2 hrs followed by compound addition after 48 hrs by Annexin V-APC/7-AAD staining based flow cytometry (reference value: 2.74%); type: functional
[15] = target: T2, MAP kinase p38 (Homo sapiens) (UniProt O15264+Q15759+Q16539+P53778); experiment: Induction of P38 phosphorylation in human K562/ADR cells assessed as ratio of phosphorylated p38 to beta-actin level at 0.1 uM measured after 48 hrs by Western blotting method (reference value: 0.25); type: cell-based
[16] = tested on: K562/Adr; experiment: Induction of apoptosis in human K562/ADR cells assessed as late apoptotic cells at 0.1 uM after 48 hrs by Annexin V-APC/7-AAD staining based flow cytometry (reference value: 1.69%); type: functional
[17] = tested on: K562/Adr; experiment: Induction of apoptosis in human K562/ADR cells assessed as early apoptotic cells at 0.1 uM after 48 hrs by Annexin V-APC/7-AAD staining based flow cytometry (reference value: 2.74%); type: functional
[18] = tested on: K562/Adr; experiment: Induction of ERK1/2 phosphorylation in human K562/ADR cells assessed as ratio of phosphorylated ERK1/2 to beta-actin level at 0.1 uM pretreated with ROS scavenger NAC for 2 hrs followed by compound addition after 48 hrs by Western blotting method (reference value: 0.22); type: cell-based
[19] = tested on: K562/Adr; experiment: Induction of apoptosis in human K562/ADR cells assessed as ratio of cleaved caspase-3 to beta-actin level at 0.1 uM pretreated with MAPK inhibitor U0126 for 1 hr followed by compound addition measured after 48 hrs by Western blot analysis (reference value: 0.06); type: functional
[20] = Downregulation of CDK2 expression in human K562/ADR cells assessed as ratio of CDK2 to beta-actin level at 0.1 uM pretreated with MAPK inhibitor SP600125 for 1 hr followed by compound addition measured after 48 hrs by Western blot analysis (reference value: 0.65); type: functional, cell-based
[21] = Potency index, ratio of etoposide IC50 to compound IC50 for antiproliferative activity against human K562/ADR cells; type: functional
[22] = tested on: K562/Adr; experiment: Induction of apoptosis in human K562/ADR cells assessed as early apoptotic cells at 0.1 uM pretreated with MAPK inhibitor SP600125 for 1 hr followed by compound addition after 48 hrs by Annexin V-APC/7-AAD staining based flow cytometry (reference value: 2.74%); type: functional; parameters: scale not given: the % may be the effect or the level left
[23] = tested on: K562/Adr; experiment: Induction of apoptosis in human K562/ADR cells assessed as ratio of cleaved PARP to beta-actin level at 0.1 uM pretreated with MAPK inhibitor U0126 for 1 hr followed by compound addition measured after 48 hrs by Western blot analysis (reference value: 0.04); type: functional
[24] = target: T1, c-Jun N-terminal kinase, JNK (Homo sapiens); experiment: Induction of JNK phosphorylation in human K562/ADR cells assessed as ratio of phosphorylated JNK to beta-actin level at 0.1 uM measured after 48 hrs by Western blotting (reference value: 0.46); type: cell-based
[25] = tested on: K562/Adr; experiment: Induction of apoptosis in human K562/ADR cells assessed as necrotic cells at 0.1 uM pretreated with MAPK inhibitor U0126 for 1 hr followed by compound addition after 48 hrs by Annexin V-APC/7-AAD staining based flow cytometry (reference value: 0.26%); type: functional; parameters: scale not given: the % may be the effect or the level left
[26] = target: T2, MAP kinase p38 (Homo sapiens); experiment: Induction of P38 phosphorylation in human K562/ADR cells assessed as ratio of phosphorylated p38 to beta-actin level at 0.1 uM pretreated with MAPK inhibitor U0126 for 1 hr followed by compound addition after 48 hrs by Western blotting method (reference value: 0.25); type: cell-based

`COc1cc([C@@H]2c3cc4c(cc3[C@H](OC(=O)c3ccco3)[C@H]3COC(=O)[C@H]23)OCO4)cc(OC)c1OC` showed a Ratio [1] of 0.51, a Ratio [2] of 0.05 and an IC50 [3] of 32 nM. The Ratio [4] was 0.35, the Ratio [5] was 0.24 and the Ratio [6] was 0.49. For the same molecule, the Ratio [7] was 0.01, the viability at 0.1 µM [8] was 65.5% and the Ratio [9] was 0.53. The Activity [10] was “Active”, the Activity [11] was 24.34% and the Ratio [12] was 0.26. The “Ratio IC50” value [13] was 1.28, the Activity [14] was 8.06% and the Ratio [15] was 0.46. For the same molecule, the Activity [16] was 40.45%, the Activity [17] was 7.92% and the Ratio [18] was 0.22. For the same molecule, the Ratio [19] was 0.49, the Ratio [20] was 0.22 and the “Ratio IC50” value [21] was 69.093. It also gave an Activity [22] of 7.8%, a Ratio [23] of 0.43 and a Ratio [24] of 0.83. For the same molecule, the Activity [25] was 3.32% and the Ratio [26] was 0.21.

From ChEMBL document CHEMBL3872207, “Aromatic heterocyclic esters of podophyllotoxin exert anti-MDR activity in human leukemia K562/ADR cells via ROS/MAPK signaling pathways” (Eur J Med Chem, 2016)
